Measurements taken from PMC9490041, “Determinants of affinity, specificity, and phase separation in a supramodule from Post-synaptic density protein 95” (iScience, 2022).
Read-outs that look alike come from different tables or passages of the source.

What was measured:
Assay in all cases: FP displacement (competition) of FITC-15 AA CRIPT by library peptide, IC50 and Ki
PSG G335A (PSD-95) = conditions: for IC50: read-out: IC50 (µM), PSG G335A; for Ki: read-out: Ki (µM), PSG G335A
PSG G322A G335A (PSD-95) = conditions: for IC50: read-out: IC50 (µM), PSG G322A G335A; for Ki: read-out: Ki (µM), PSG G322A G335A
PSG (PSD-95) = conditions: for IC50: read-out: IC50 (µM), PSG; for Ki: read-out: Ki (µM), PSG
PSG G322A (PSD-95) = conditions: for IC50: read-out: IC50 (µM), PSG G322A; for Ki: read-out: Ki (µM), PSG G322A
[1] = FP displacement of FITC-15 AA CRIPT probe by PSD library peptide, protein PSG G335A
[2] = FP displacement of FITC-15 AA CRIPT probe by PSD library peptide, protein PSG G322A G335A
[3] = FP displacement of FITC-15 AA CRIPT probe by PSD library peptide, protein PSG (wild type)
[4] = FP displacement of FITC-15 AA CRIPT probe by PSD library peptide, protein PSG G322A
[5] = FP displacement of FITC-15 AA CRIPT probe by acetylated PSD library peptide

Row | IC50 (PSG G335A (PSD-95); [1]) [µM] | Ki (PSG G335A (PSD-95); [1]) [µM] | IC50 (PSG G322A G335A (PSD-95); [2]) [µM] | Ki (PSG G322A G335A (PSD-95); [2]) [µM] | IC50 (PSG (PSD-95); [3]) [µM] | Ki (PSG (PSD-95); [3]) [µM] | IC50 (PSG G322A (PSD-95); [4]) [µM] | Ki (PSG G322A (PSD-95); [4]) [µM] | IC50 (PSG G335A (PSD-95); [5]) [µM] | Ki (PSG G335A (PSD-95); [5]) [µM] | IC50 (PSG G322A G335A (PSD-95); FP displacement of FITC-15 AA CRIPT probe by acetylated PSD library peptide (P-13 to P0 plus extra N-terminal Y)) [µM] | Ki (PSG G322A G335A (PSD-95); [5]) [µM] | IC50 (PSG (PSD-95); [5]) [µM] | Ki (PSG (PSD-95); [5]) [µM] | IC50 (PSG G322A (PSD-95); [5]) [µM] | Ki (PSG G322A (PSD-95); [5]) [µM] | Structure (SMILES)
1 | 603 | 215 | 435 | 151 | 1450 | 765 | 792 | 343 | – | – | – | – | – | – | – | – | CC(=O)N[C@@H](Cc1ccc(O)cc1)C(=O)N[C@@H](CO)C(=O)N[C@@H](CO)C(=O)N[C@H](C(=O)N[C@@H](CO)C(=O)N1CCC[C@H]1C(=O)N[C@@H](CCC(N)=O)C(=O)N[C@@H](CO)C(=O)N[C@H](C(=O)N[C@@H](CC(=O)O)C(=O)N[C@@H](CCCCN)C(=O)N[C@@H](CO)C(=O)N[C@@H](CO)C(=O)N[C@H](C(=O)N[C@H](C(=O)O)C(C)C)[C@@H](C)O)[C@@H](C)O)[C@@H](C)O [SRGP2]
2 | – | – | – | – | – | – | – | – | 1230 | 438 | 980 | 339 | 380 | 161 | 83 | 36 | CC(=O)N[C@@H](Cc1ccc(O)cc1)C(=O)N[C@H](C(=O)N[C@@H](CCC(=O)O)C(=O)N[C@@H](CO)C(=O)N[C@@H](CCCCN)C(=O)N[C@@H](CCCCN)C(=O)N[C@@H](Cc1c[nH]cn1)C(=O)NCC(=O)N[C@@H](CCCNC(=N)N)C(=O)N[C@@H](Cc1c[nH]c2ccccc12)C(=O)N[C@@H](CCCCN)C(=O)N[C@@H](CC(C)C)C(=O)N[C@@H](Cc1c[nH]c2ccccc12)C(=O)N[C@@H](Cc1ccccc1)C(=O)N[C@@H](CC(C)C)C(=O)O)[C@@H](C)O [INSY2]
3 | 329 | 117 | 147 | 51 | 631 | 269 | 156 | 68 | – | – | – | – | – | – | – | – | CC(=O)N[C@@H](Cc1ccc(O)cc1)C(=O)N[C@@H](CCCNC(=N)N)C(=O)N[C@@H](CCC(N)=O)C(=O)N1CCC[C@H]1C(=O)N[C@@H](CC(C)C)C(=O)N1CCC[C@H]1C(=O)N[C@@H](CC(=O)O)C(=O)N[C@@H](CO)C(=O)N[C@@H](CC(N)=O)C(=O)N1CCC[C@H]1C(=O)N[C@@H](CCC(=O)O)C(=O)N[C@@H](CCC(=O)O)C(=O)N[C@@H](CO)C(=O)N[C@@H](CO)C(=O)N[C@H](C(=O)O)C(C)C [SEM4C]
4 | 630 | 224 | 662 | 229 | 2120 | 902 | 462 | 200 | – | – | – | – | – | – | – | – | CC[C@H](C)[C@H](NC(=O)[C@H](CCC(=O)O)NC(=O)[C@@H](NC(=O)[C@H](CO)NC(=O)[C@H](CCC(=O)O)NC(=O)[C@@H](NC(=O)[C@H](CCCNC(=N)N)NC(=O)[C@H](CCC(=O)O)NC(=O)[C@H](CC(C)C)NC(=O)[C@H](CCCNC(=N)N)NC(=O)[C@H](CO)NC(=O)[C@@H]1CCCN1C(=O)[C@@H](NC(=O)[C@H](Cc1c[nH]c2ccccc12)NC(=O)[C@H](Cc1ccc(O)cc1)NC(C)=O)[C@@H](C)O)[C@@H](C)CC)[C@@H](C)O)C(=O)O [LZTS3]
5 | 237 | 84 | 343 | 119 | 1500 | 793 | 564 | 244 | – | – | – | – | – | – | – | – | CC[C@H](C)[C@H](NC(=O)[C@H](CC(N)=O)NC(=O)CNC(=O)CNC(=O)[C@H](CO)NC(=O)[C@H](Cc1ccc(O)cc1)NC(=O)[C@H](CCC(=O)O)NC(=O)[C@@H]1CCCN1C(=O)[C@H](Cc1ccc(O)cc1)NC(C)=O)C(=O)N[C@H](C(=O)N[C@@H](CCCNC(=N)N)C(=O)N[C@H](C(=O)N[C@@H](CO)C(=O)N[C@@H](C)C(=O)N[C@@H](CC(C)C)C(=O)O)C(C)C)C(C)C [KCND2]
